A short description of the series: Human HepG2 cell viability assay in 384 well format. Type of series: toxicity, cell-based. On the set-up: dose 125 nL, time 70.5 hour; concentration not given beside the values. As to conditions: HepG2 cells, read-out: Inhibition.
In the case of `Cn1nc(C2CCCC2)c(-c2ccc3c(c2)OCO3)c1N`, the cytotoxicity at 70.5 h is -8.03%. As for `CCc1cc(=O)[nH]c2nnc(SCC(=O)NC(C)C)n12`, the figure is 17.6%; as for `COc1ccccc1C1(CNc2ccnc(C(=O)N(C)C)c2)CC1`, 33.4%.

As to `COc1ccc(-c2c(C(C)C)nn3c(=N)c(C#N)n[nH]c23)cc1`, the cytotoxicity at 70.5 h was -20.1%. With `CC(=O)N(C)C1CCCc2nc(C)sc21` (centres undefined), the cytotoxicity at 70.5 h is -11%. As for `Cc1cnc(N2C[C@@H]3CCN(CC(=O)N(C)C)C(=O)[C@H]3C2)nc1`, the figure is 4.34%.

Take `Cc1cc(CN(C)Cc2ncc(-c3cccs3)o2)no1`: the cytotoxicity at 70.5 h amounted to 0.203%. Next, `c1csc(N2CCCN(Cc3noc(C4CC4)n3)CC2)n1`: -11.8%; `CC(C)(C)c1ncc2c(n1)CN(C(=O)c1ccncc1)C2`: -9.79%; `Cc1ccc(C(=O)N(C)CCCc2cnn(C)c2)cc1N1CCNC1=O`: 46.5%. In the case of `CNC(=O)c1cc2c(nc1NC(C)C)CCNCC2`, the cytotoxicity at 70.5 h was 6.54%. As for `CSc1nccc(NCC2CNCCOC2)n1` (centres undefined), the figure is -11.3%; as for `CC(C(=O)NCc1ccc(N2CCCC2)nc1)n1cncn1` (centres undefined), -0.612%; as for `CNC(=O)CCC(=O)N1CCOC(c2ccc3cc(OC)ccc3c2)C1` (centres undefined), -3.11%. `O=C1CC(N(C(=O)Cc2csc(-c3ccccc3)n2)C2CC2)C(=O)N1` (centres undefined): the cytotoxicity at 70.5 h was -1.89%. Next, `Cc1ccc(N2CCC3(CCN(C(N)=O)CC3)CC2)nn1`: -27.1%; `CC(c1ccncn1)N(C)Cc1cc2cc3c(cc2[nH]c1=O)OCO3` (centres undefined): 3.45%. With `Cc1ccc(CN(C)c2nccc(-c3cn(C)nc3C)n2)o1`, the cytotoxicity at 70.5 h was -9.08%. Next, `Cc1nc(C)c(CNCc2nnc3n2CCCC3C(F)(F)F)s1` (centres undefined): -8.57%.

For the compound `CSc1nccn1-c1cccc(C(=O)NCCN2CCS(=O)(=O)CC2)c1`, the cytotoxicity at 70.5 h was determined as 0.708%. As for `Nc1ncccc1C(=O)NCc1cccc(Br)c1`, the figure is 13.7%; as for `Cn1c(CN2CCCC(N3CCNC3=O)C2)cc(=O)n(C)c1=O` (centres undefined), 26.4%; as for `COC(=O)c1ccn(CC(=O)Nc2nn(CC3CC3)c3ccccc23)n1`, -0.998%. `Cc1noc(C)c1C(C)C(=O)N1CCCN(C)c2ccc(Cl)cc21` (centres undefined): the cytotoxicity at 70.5 h was -6.12%.

Turning to `Cc1cn2c(n1)CCC(NC(=O)c1ccc(S(C)(=O)=O)o1)C2` (centres undefined), the cytotoxicity at 70.5 h is 6.89%. Turning to `Cn1cc(C(NCc2ccc(F)cc2)c2cccc(F)c2)cn1` (centres undefined), the cytotoxicity at 70.5 h is -13.5%.

In the case of `Cc1noc(C(C)C)c1C(=O)NCc1ccc(N(C)C)c(F)c1`, the cytotoxicity at 70.5 h was -9.82%. Take `CNC(=O)CS(=O)(=O)Cc1cc(Cl)c2c(c1)OCCO2`: the cytotoxicity at 70.5 h is -4.61%. As for `O=C(O)c1cc2c(nc1N1CCCC1)CCN(C1CCOCC1)CC2`, the figure is 12%; as for `O=C1CC2(CCN(CCCO)CC2)CN1Cc1ccc(F)c(F)c1`, -5%; as for `CCNc1ncc(C(=O)NCCCc2ccncc2)cn1`, -3.04%. Next, `O=C(NCCCN1CCN(c2ncccn2)CC1)NCC1CCCO1` (centres undefined): -3.85%; `Cc1nc(N2CCCC2)nc(N2CCC(O)(C(=O)O)CC2)c1C`: 23.8%; `COc1ccc2c(c1)CCCN2Cc1nc(C)c(C)o1`: -4.99%. As for `CC(C)=CCN1CCN(C(=O)c2cc(C(C)C)no2)[C@H]2CS(=O)(=O)C[C@H]21`, the figure is -8.12%. Consider `Cc1csc([C@@H]2C[C@@H]3CCN(C(=O)c4ccnnc4)C[C@H]3O2)n1`, for which the cytotoxicity at 70.5 h was -3.66%. Next, `OC1CCN(c2ccnc(NCCc3ccccc3Cl)n2)C1` (centres undefined): -3.46%.

Regarding `CC(C)CC(C(=O)N(C)Cc1ncnn1C)N1CCCCC1=O` (centres undefined), the cytotoxicity at 70.5 h was -2.2%.

Take `Cc1cnc(-n2cnnc2)c(-c2cccc3c2CCNC3)c1`: the cytotoxicity at 70.5 h was -7.78%. As for `Cc1cnc(CN(Cc2ccc(C#N)cc2F)C2CCN(C)C2)o1` (centres undefined), the figure is -8.53%; as for `COc1ccc(N2CCOCC3(CCCN(c4cnccn4)C3)C2)cc1` (centres undefined), -1.59%; as for `Cc1n[nH]c(C)c1CCN(C)C(=O)c1ccc(CN2CCCCC2)cc1`, 34.3%. Next, `CC(C)N1[C@H](Cn2cncn2)C[C@@H]2CN(Cc3nccn3C)CC[C@@H]21`: -6.18%. Next, `Cc1c(-c2ccccc2)nc2c(c(C)c(C)n2CCN(C)C)c1N`: 13.6%; `COc1ccccc1NC(=O)N1CCCC1c1ccco1` (centres undefined): -0.874%; `Cn1ccnc1NC[C@@H]1CCC[C@@H]2CN(CC3CC3)C[C@@H]21`: -9.55%. On to `CN1CCN(Cn2nc(-c3cccs3)ccc2=O)CC1`, for which the cytotoxicity at 70.5 h is -29.8%.

For the compound `O=C(c1ccc(C(F)(F)F)cc1)C1CCCN(C(=O)Cn2cnnn2)C1` (centres undefined), the cytotoxicity at 70.5 h is -15.3%. For the compound `Cc1cnn(CCNCC(=O)N2CCN(c3ccccc3)CC2)c1`, the cytotoxicity at 70.5 h stood at 21.4%. As for `N#Cc1ccc(CN2CCCN(C(=O)CCn3cncn3)CC2)cc1`, the figure is -10.9%; as for `Cc1nn(C)c(C)c1C1CCCN1Cc1cccc(OCC(N)=O)c1` (centres undefined), -7.47%. Next, `CCn1ccc(C(=O)N2CCCC2(C)c2nc(C)cc(N(C)C)n2)n1` (centres undefined): -7.92%; `Cc1cc(N(C)C)nc(N(C)Cc2csc(C)n2)n1`: -7.95%; `c1cncc(NCCNC2CCCNC2)c1` (centres undefined): 2.18%. Next, `COCC1COCCC12CCN(C(=O)CCc1ccccc1)CC2` (centres undefined): 5.59%.

As to `Cc1nc(C)n(CC2CCCN2CC(=O)NCc2ccco2)n1` (centres undefined), the cytotoxicity at 70.5 h is -2.21%.

Take `COc1ccc(CN2C[C@H](O)C[C@H]2c2nc(-c3ccccc3)no2)cc1`: the cytotoxicity at 70.5 h was determined as 9.25%. On to `CC(C)CN1C[C@@H]2OCC(=O)N(Cc3nccn3C)[C@@H]2C1`, for which the cytotoxicity at 70.5 h is 14%.

Regarding `COC(=O)N1CCc2ccc(NC(=O)c3cn(C)nn3)cc2C1`, the cytotoxicity at 70.5 h is -4.27%.

With `CS(=O)(=O)c1ccc(NC(=O)NC2(c3ccccc3)CCC2)cc1`, the cytotoxicity at 70.5 h was -8.88%. As for `Cc1cc(-c2cccnc2)nc(C2CCCN2S(C)(=O)=O)n1` (centres undefined), the figure is -3.42%; as for `CC(C)(C)CN1CCCC12Cc1ccccc1CNC2=O` (centres undefined), -7.71%. For the compound `Cc1noc(C(C)C)c1C(=O)NS(=O)(=O)c1ccc(Cl)cc1`, the cytotoxicity at 70.5 h is -3.31%. Next, `COCCCC1CCCCN1C(=O)c1ccc(SCCO)cc1` (centres undefined): 6.41%; `Cc1noc(C)c1CN1C[C@H](OCC2CC2)[C@H]2OCCC[C@H]21`: -9.93%; `CCn1ccnc1CN1CCCN(C(=O)Cc2ccccc2C)CC1`: -1.08%. As for `CO[C@H]1CN(C(C)C)C[C@@H]1NC(=O)Nc1cccc(SC)c1`, the figure is 49.1%; as for `Cc1cccc(C)c1OC1CN(Cc2cnn(C)c2)C1`, 0.587%; as for `CN(c1ccc(C(=O)NCCCN2CCCC2)c(Cl)c1)S(C)(=O)=O`, 17.4%. With `CC(C)NC(=O)CNC(=O)c1csc(Cc2ccccc2F)n1`, the cytotoxicity at 70.5 h is -4.54%. Take `CCOC(=O)c1cnn(-c2cc(Oc3cc(C)ccc3C)ncn2)c1N`: the cytotoxicity at 70.5 h is -0.831%. As for `O=c1[nH]c(C2CCOC2)nc2ccc(Cl)cc12` (centres undefined), the figure is 7.32%; as for `CN(Cc1ccc(N2CCOCC2)cc1)Cc1noc(C(C)(C)C)n1`, 7.66%; as for `c1cc(CCN2CCCC2CN2CCCCC2)ccn1` (centres undefined), 25.4%. Next, `COc1ccc(-n2cccn2)c(CN2CCC3(CCNCC3)C2)c1`: -9.48%; `O=C(CC1OCCc2ccccc21)NCC1(O)CCCCC1` (centres undefined): -2.94%; `CCOc1ncccc1NC(=O)NCC(O)c1ccccc1OC` (centres undefined): 11.2%.

Turning to `CCc1nc(C2NC3(CCCC3)C(=O)N2CC2CC2)cs1` (centres undefined), the cytotoxicity at 70.5 h was 22.7%.

As to `O=C1CC(c2ccccc2F)c2c(n3ccsc3nc2=O)N1` (centres undefined), the cytotoxicity at 70.5 h is -14%. As for `C[C@@H]1CN(S(=O)(=O)N2CCCC2)C[C@@]1(O)C1CC1`, the figure is -4.68%.

`NC(=O)C1CCCCN1C(=O)c1ccc(Br)s1` (centres undefined): the cytotoxicity at 70.5 h is -5.06%. Next, `CC1CCN(C(CNC(=O)CCn2cccn2)c2cccs2)CC1` (centres undefined): -1.29%; `Cc1cc(CN(C)CC(c2cccs2)N2CCOCC2)on1` (centres undefined): -7.4%. As for `O=C(CN1CCCC1Cn1cncn1)Nc1ccc(Cl)cn1` (centres undefined), the figure is -3.38%; as for `CCc1nsc(NC2CC(=O)N(C3CC3)C2)n1` (centres undefined), -0.811%; as for `Cc1cnn(CC2CCCCN2C(=O)c2c(C)noc2C)c1` (centres undefined), -0.615%. Next, `Cc1nc[nH]c1CN(Cc1ccccc1F)C1CC(C)(C)NC(C)(C)C1`: -2.5%. Turning to `CCc1ccc(N2CCC(NS(=O)(=O)N(CC)CC)CC2)cc1`, the cytotoxicity at 70.5 h is -5.14%.

As to `CSC(C)C(=O)N1CCC(Oc2cc(C)ccc2F)(C(=O)O)CC1` (centres undefined), the cytotoxicity at 70.5 h is -7.76%. Next, `CN(C)c1nc(N2CCCC2)nc2c1CCN(C(=O)c1ccco1)CC2`: -7.2%. For the compound `COc1ncccc1CN1CCc2[nH]nc(C(=O)N(C)C)c2C1`, the cytotoxicity at 70.5 h is -11.3%. As for `CN(Cc1csc(-c2cccs2)n1)Cc1ncccc1C(=O)O`, the figure is -12.2%. Next, `CNc1nc(C)c(C(=O)N2CCCCC2CCc2ccc(O)cc2)s1` (centres undefined): -8.49%; `CS(=O)(=O)N1C[C@H]2CCC[C@@]2(COCC2CCOCC2)C1`: -4.48%; `CCc1nnsc1-c1nc(C(C)C)nn1-c1ccc2c(c1)OCO2`: -5.86%.

As to `COc1ccc(C2SC(C)=Nc3c2c(=O)[nH]n3C2CCCCC2)cc1O` (centres undefined), the cytotoxicity at 70.5 h was 2.14%.

`CN(CCCc1cnn(C)c1)C(=O)C1CCN(C(=O)C2CCC2)CC1`: the cytotoxicity at 70.5 h was -10.7%. Turning to `CC(C)c1ncncc1C(=O)NCCN1CCCS1(=O)=O`, the cytotoxicity at 70.5 h is -12.7%. Next, `CC(C)(C)CN1CCN(CC2CC2)C(CCO)C1` (centres undefined): -0.19%.
